For experiment [1], the system named is human patient-derived xenografts. Briefly: Xenograft-derived chemical screen (Supplemental Table 3). It counts as cell-based. The settings on record: 60 agent PPTI screen; for pIC50: read-out: IC50 Value. The procedure:
Three chemical screens were applied to the U23674 primary tumor cell culture. […] The target inhibition profile is a quantified description of the inhibitory properties of the compound on the numerous protein targets preset on the PPTI screen.
To screen the chemical agents, cell cultures were plated in 384 well plates at a seeding density of 2000 cells per well over graded concentrations of the numerous compounds. The chemical concentrations were between 10 nM and […] depending on the activity range of the compounds. The cells were incubated in DMEM supplemented with 1% penicillin streptomycin, and 10% fetal bovine serum for 72 hours. Chemical sensitivity was determined by an MTS cell viability assay after the 72 hour incubation period. The sensitivity responses at the different concentrations were used to determine the chemical IC50 using a hill curve fitting algorithm with variable hill slope coefficients.

The next experiment concerns DIPG neurospheres. The experiment in a line: cells. The settings on record: for pIC50: 48 h, read-out: In Vitro Absolute IC50; for viability at 10 µM: read-out: cell viability (cytocidal).

This note sets out measurements from patent US20150269307A1, “TARGET INHIBITION MAP SYSTEM FOR COMBINATION THERAPY DESIGN AND METHODS OF USING SAME” (Texas Tech University System, priority 2014, published 2015).

The term pIC50 denotes the IC50 on a negative log10 scale, so that one unit is a factor of ten. The viability is the share of living cells, or the viability signal relative to a control.

pIC50: −log10 of the molar value. Where two headings read alike, the source gives them in different places.

Description for DIPG neurospheres: Primary cultures of DIPG neurospheres were added to 384 well plates pre-plated with 60 known drugs in an increasing gradient of concentrations. […] To complete this drug screen, primary cultures of nestin […] 53 deficient DIPG neurospheres were added to plates with 60 known drug samples in an increasing gradient of concentrations.

For the molecule `CN1CC[C@H](c2c(O)cc(O)c3c(=O)cc(-c4ccccc4Cl)oc23)[C@H](O)C1` [alvocidib], in experiment [1], the “IC50 Value” is on record as “>conc tested”.
As for `COc1cc2nc(N3CCCN(C)CC3)nc(NC3CCN(Cc4ccccc4)CC3)c2cc1OC` [BIX-01294], the pIC50 in experiment [1] (Homo sapiens) is 5.17. Besides, in the experiment on DIPG neurospheres, the pIC50 is 5.40 and the viability at 10 µM was less than 15%.
Take `CCOc1cc(/C=C2/C(=O)N(c3ccccc3)N=C2C)cc(Cl)c1OCC(=O)OC` [SJ-172550]: the “IC50 Value” in experiment [1] is “>conc tested”.
Take `CC1=C(/C=C/C(C)=C/C=C/C(C)=C/C(=O)Nc2ccc(O)cc2)C(C)(C)CCC1` [fenretinide]: the “IC50 Value” in experiment [1] is listed as “>conc tested”.
On to `NC1(c2ccc(-c3nc4ccn5c(=O)[nH]nc5c4cc3-c3ccccc3)cc2)CCC1` [MK-2206], for which the pIC50 in experiment [1] (Homo sapiens) was 5.26.
Turning to `Nc1cccc2c1CN(C1CCC(=O)NC1=O)C2=O` (centres unmarked) [lenalidomide], the “IC50 Value” in experiment [1] was “>conc tested”.
The same measure, in the same setting: the entry for `COc1cc2c(Oc3ccc4[nH]c(C)cc4c3F)ncnc2cc1OCCCN1CCCC1` [cediranib] is “>conc tested”; for `CO[C@H]1C[C@@H]2CC[C@@H](C)[C@@](O)(O2)C(=O)C(=O)N2CCCC[C@H]2C(=O)O[C@H]([C@H](C)C[C@@H]2CC[C@@H](OC(=O)C(C)(CO)CO)[C@H](OC)C2)CC(=O)[C@H](C)/C=C(\C)[C@@H](O)[C@@H](OC)C(=O)[C@H](C)C[C@H](C)/C=C/C=C/C=C/1C` [temsirolimus] it is “>conc tested”.
Turning to `CC(=O)N[C@@H](CS)C(=O)O` [NAC, N-acetyl cysteine], in experiment [1], the “IC50 Value” is recorded as “>conc tested”.
Consider `CC(/C=C/C(=O)NO)=C\[C@@H](C)C(=O)c1ccc(N(C)C)cc1` [trichostatin A], for which, in experiment [1], the pIC50 was 5.26.
As to `CS(=O)(=O)CCNCc1ccc(-c2ccc3ncnc(Nc4ccc(OCc5cccc(F)c5)c(Cl)c4)c3c2)o1` [lapatinib], the “IC50 Value” in experiment [1] is listed as “>conc tested”.
With `CS(=O)(=O)c1ccc(C(=O)Nc2ccc(Cl)c(-c3ccccn3)c2)c(Cl)c1` [vismodegib], the “IC50 Value” in experiment [1] is listed as “>conc tested”.
In the case of `COC1=CC(c2cc3ccccc3[nH]2)=N/C1=C\c1[nH]c(C)cc1C` [Obatoclax], in the experiment on DIPG neurospheres, the pIC50 was 6.80 and the viability at 10 µM is less than 15%.
On to `CCNC(=O)c1noc(-c2cc(C(C)C)c(O)cc2O)c1-c1ccc(CN2CCOCC2)cc1` [AUY922], for which, in experiment [1] (Homo sapiens), the pIC50 is 5.99.
Take `CCN(CC)CCNC(=O)c1c(C)[nH]c(/C=C2\C(=O)Nc3ccc(F)cc32)c1C` [Sunitinib]: in the experiment on DIPG neurospheres, the pIC50 was 5.16 and the viability at 10 µM is less than 15%.
With `CC(C)C[C@H](NC(=O)[C@H](Cc1ccccc1)NC(=O)c1cnccn1)B(O)O` [bortezomib], the pIC50 in experiment [1] (Homo sapiens) was 6.09.
For `C[C@@H](Oc1cc(-c2cnn(C3CCNCC3)c2)cnc1N)c1c(Cl)ccc(F)c1Cl` [Crizontinib, crizotinib], the negative logarithm of the IC50 (pIC50) in experiment [1] (Homo sapiens) is 5.29. In addition, in the experiment on DIPG neurospheres, the pIC50 is 5.21 and the viability at 10 µM is less than 15%.
Consider `Cc1cc(Nc2cc(N3CCN(C)CC3)nc(Sc3ccc(NC(=O)C4CC4)cc3)n2)[nH]n1` [tozasertib], for which the “IC50 Value” in experiment [1] is “>conc tested”.
Regarding `NC(=O)c1ccc(-c2nc(-c3ccc4c(c3)OCO4)c(-c3ccccn3)[nH]2)cc1` [SB-431542], the “IC50 Value” in experiment [1] was “>conc tested”.
`CC1=C(/C=C/C(C)=C/C=C/C(C)=C/C(=O)O)C(C)(C)CCC1` [tretinoin]: the “IC50 Value” in experiment [1] is recorded as “>conc tested”.
`CCCC(=O)[O-].[Na+]` [sodium butyrate]: the “IC50 Value” in experiment [1] was “>conc tested”.
Turning to `CNC(=O)CN1CCC(Oc2cc3c(Nc4cccc(Cl)c4F)ncnc3cc2OC)CC1` [AZD-8931], the “IC50 Value” in experiment [1] is recorded as “>conc tested”.
Regarding `CN(c1ncccc1CNc1nc(Nc2ccc3c(c2)CC(=O)N3)ncc1C(F)(F)F)S(C)(=O)=O` [PF-562271], the “IC50 Value” in experiment [1] is “>conc tested”.
Consider `COc1cc(Nc2ncc3c(n2)-c2ccc(Cl)cc2C(c2c(F)cccc2OC)=NC3)ccc1C(=O)O` [alisertib], for which the “IC50 Value” in experiment [1] is recorded as “>conc tested”.
`CC(C)C[C@H](NC(=O)[C@H](CCc1ccccc1)NC(=O)CN1CCOCC1)C(=O)N[C@@H](Cc1ccccc1)C(=O)N[C@@H](CC(C)C)C(=O)[C@@]1(C)CO1` [Carfilzomib]: the pIC50 in experiment [1] (Homo sapiens) is 6.07; in the experiment with DIPG neurospheres, 6.08. The viability at 10 µM in the experiment with DIPG neurospheres is less than 15%.
In the case of `CN(C)CC[C@H](CSc1ccccc1)Nc1ccc(S(=O)(=O)NC(=O)c2ccc(N3CCN(Cc4ccccc4-c4ccc(Cl)cc4)CC3)cc2)cc1[N+](=O)[O-]` [ABT-737], the negative-log IC50 (pIC50) in experiment [1] (Homo sapiens) is 5.58.
For `Nc1ccccc1NC(=O)c1ccc(CNC(=O)OCc2cccnc2)cc1` [entinostat], the pIC50 in experiment [1] (Homo sapiens) is 5.75.
Same read-out and setting: the figure for `COc1cc(Nc2ncc(F)c(Nc3ccc4c(n3)N(COP(=O)(O)O)C(=O)C(C)(C)O4)n2)cc(OC)c1OC` [fostamatinib] is 5.29.
On to `N#Cc1ccc(COC[C@H]2O[C@@H](n3c(NCc4ccc(Cl)c(Cl)c4)nc4c(N)ncnc43)[C@H](O)[C@@H]2O)cc1` [VER-155008], for which, in experiment [1], the “IC50 Value” was “>conc tested”.
As for `CC(C)(C(=O)NCC(F)(F)C(F)(F)F)C(=O)N[C@@H]1C(=O)Nc2ccccc2-c2ccccc21` [RO4929097], the “IC50 Value” in experiment [1] is listed as “>conc tested”.
On the same count and under the same terms, the entry for `Cn1c(=O)n(-c2ccc(C(C)(C)C#N)cc2)c2c3cc(-c4cnc5ccccc5c4)ccc3ncc21` [BEZ235] is “>conc tested”.
With `Cc1[nH]c2ccccc2c1CCNCc1ccc(/C=C/C(=O)NO)cc1` [panobinostat], the negative logarithm of the IC50 (pIC50) in experiment [1] (Homo sapiens) is 6.61.
`CCN(CC)CCCC(C)Nc1c2ccc(Cl)cc2nc2ccc(OC)cc12` (centres unmarked) [quinacrine]: the pIC50 in experiment [1] (Homo sapiens) was 5.31.
In the case of `CC(C)(C)c1cnc(CSc2cnc(NC(=O)C3CCNCC3)s2)o1` [SNS-032], the “IC50 Value” in experiment [1] is “>conc tested”. Further, in the experiment on DIPG neurospheres, the pIC50 was 6.30 and the viability at 10 µM was less than 15%.
Turning to `Cc1cn(-c2cc(NC(=O)c3ccc(C)c(Nc4nccc(-c5cccnc5)n4)c3)cc(C(F)(F)F)c2)cn1` [nilotinib], in experiment [1], the “IC50 Value” was “>conc tested”.
For the molecule `CC(C)[C@H]1C(=O)N[C@@H](CCCN=C(N)N)C(=O)NCC(=O)N[C@@H](CC(=O)O)C(=O)N[C@H](Cc2ccccc2)C(=O)N1C` [cilengitide], the “IC50 Value” in experiment [1] is given as “>conc tested”.
For the molecule `CN(C)c1ccccc1CN1CCCN(Cc2ccccc2N(C)C)C1c1ccncc1` [GANT61], the pIC50 in experiment [1] was 5.13.
Take `C[C@]1(c2nc3c(C(N)=O)cccc3[nH]2)CCCN1` [veliparib]: in experiment [1], the “IC50 Value” is “>conc tested”.
On the same count and under the same terms, the value for `CCOc1cc2ncc(C#N)c(Nc3ccc(F)c(Cl)c3)c2cc1NC(=O)/C=C/CN(C)C` [pelitinib] was “>conc tested”.
As to `COc1cc2c(Nc3ccc(Br)cc3F)ncnc2cc1OCC1CCN(C)CC1` [vandetanib], the pIC50 in experiment [1] (Homo sapiens) is 5.52.
Consider `COc1nc(C)cnc1NS(=O)(=O)c1cccnc1-c1ccc(-c2nnco2)cc1` [zibotentan], for which the “IC50 Value” in experiment [1] is “>conc tested”.
`CNC(=O)c1cc(Oc2ccc(NC(=O)Nc3ccc(Cl)c(C(F)(F)F)c3)cc2)ccn1` [sorafenib]: the pIC50 in experiment [1] (Homo sapiens) is 5.21.
Turning to `Cn1cc(C2=C(c3cn(C4CCN(Cc5ccccn5)CC4)c4ccccc34)C(=O)NC2=O)c2ccccc21` [enzastaurin], the “IC50 Value” in experiment [1] is reported as “>conc tested”.
